The source of these data is publication PMC9225722, “Synthesis and biological evaluation of thieno[3,2-c]pyrazol-3-amine derivatives as potent glycogen synthase kinase 3β inhibitors for Alzheimer’s disease” (Journal of Enzyme Inhibition and Medicinal Chemistry, 2022).

One experiment concerns SH-SY5Y cells. Put plainly: Neuronal neurite outgrowth assay. Format: cell-based, human. Particulars: 10 μM, 72 h, compared with RA (10 μM). The source says:
Differentiated SH-SY5Y cells express neurogenesis-related markers, including growth-associated protein 43 (GAP43), the N-myc gene as well as neuronal polarity marker microtubule-associated protein 2 (MAP-2). GAP43 is an intrinsic determinant of neuronal development and plasticity which regulates axon growth and regeneration[68]^,[69]. N-myc is indispensable to normal neurogenesis in the expansion of progenitor cell populations. MAP-2 regulates neuronal development, structural stability and synaptic plasticity through the formation of axonal and dendritic processes[71]^,[72]. Inhibition of GSK-3β could induce neurogenesis and promote the expressions of the neurogenesis-related markers. Firstly, we used SH-SY5Y cells to study the effect of 16b on neurite outgrowth, using retinoic acid (RA) as a positive control. After incubating with 16b (10 μM) or RA (10 μM) for 72 h, the morphology of differentiated neuronal neurite outgrowth were obtained.
Figure 8. (A) Effect of 16b (10 μM) on neurite outgrowth (72 h). Red arrows indicated cells bearing neurites. […]
SH-SY5Y cells (5 × 10^3) were planted in 96-well plates and cultivated at 37 °C for 24 h. […] After the SH-SY5Y cells were cultivated for 24 h, total RNA was extracted, and quantitative RT-PCR was performed according to the previously reported method.

A further experiment has as its target T1, CK2 (Homo sapiens, UniProt P68400).
T1 construct: purchased Eurofins Cerep SA (contract assay service)
In words: Kinase selectivity screen (enzymatic radioactive assay, Eurofins Cerep). Type of experiment: biochemical. Conditions: 1.0 μM compound, Km ATP. The source says: (§1) The potent GSK-3β inhibitor 16b was next subjected to kinase selectivity assay. A panel of kinases which were structurally related to GSK-3β was used for the GSK-3β selectivity studies[26]^,[37]^,[38]. […] GSK-3α and GSK-3β are known to share a 98% sequence homology at the catalytic site[42]. CDK5 and GSK-3 belong to the CMGC protein kinase family, which shared highly homology with each other[43]^,[44]. CDK5 is known abnormally activated and also responsible for the tau hyperphosphorylation in AD[45]. It was known that Aβ could increase CK2 activity, which in turn accelerated the tau phosphorylation in AD[46]. Therefore, the inhibition of CDK5 and CK2 by 16b may be beneficial for its anti-AD activities.
(§2) Figure 3. Effects of compound 16b on the activities of 21 protein kinases in vitro. Protein kinases were of human origin and assayed in the presence of 1.0 μM compound 16b or vehicle (DMSO). The enzymatic activity was measured in the presence of Km ATP. Kinase activities were given as the mean of twice determinations. AMPKα1, AMP-activated protein kinase 1; AMPKα2, AMP-activated protein kinase 2; CDK4/cyclinD3, cyclin-dependent protein kinase-4/cyclinD3; CDK5/p35, cyclin-dependent protein kinase-5/p35; CHK1, checkpoint kinase-1; CK2, casein kinase-2; Lck, lymphocyte kinase; MSK1, mitogen- and stress-activated protein kinase-1; p70S6K, p70 ribosomal protein S6 kinase; PDK1, 3-phosphoinositide-dependent protein kinase-1; PKA, cAMP-dependent protein kinase; PKBα, protein kinase Bα; PKCα, protein kinase Cα; PRAK, p38-regulated/activated kinase; SAPK2a, stress-activated protein kinase-2a; SAPK2b, stress-activated protein kinase-2b; SAPK3, stress-activated protein kinase-3; SAPK4, stress-activated protein kinase-4; SGK, serum- and glucocorticoid-induced protein kinase.
(§3) Compound 16b was evaluated for kinase selectivity at Eurofins Cerep SA (Celle-L’Evescault, France) in enzymatic radioactive assays in a panel of 21 different kinases (including GSK-3β) from diverse families. […] The enzymatic activity was measured in the presence of Km ATP.

The next experiment concerns the target T2, GSK-3α (Homo sapiens, UniProt P49840).
T2 construct: purchased Eurofins Cerep SA (contract assay service)
The experiment is described as above. Format: biochemical. Particulars: 1.0 μM compound, Km ATP.
Excerpt: as §1, §2, §3

The next experiment has as its target T3, CDK5/p35 (Homo sapiens, UniProt Q00535).
T3 construct: purchased Eurofins Cerep SA (contract assay service)
Described as above. Format: biochemical. Particulars: 1.0 μM compound, Km ATP.
Excerpt: as §1, §2, §3

T1 sequence (P68400 whole entry): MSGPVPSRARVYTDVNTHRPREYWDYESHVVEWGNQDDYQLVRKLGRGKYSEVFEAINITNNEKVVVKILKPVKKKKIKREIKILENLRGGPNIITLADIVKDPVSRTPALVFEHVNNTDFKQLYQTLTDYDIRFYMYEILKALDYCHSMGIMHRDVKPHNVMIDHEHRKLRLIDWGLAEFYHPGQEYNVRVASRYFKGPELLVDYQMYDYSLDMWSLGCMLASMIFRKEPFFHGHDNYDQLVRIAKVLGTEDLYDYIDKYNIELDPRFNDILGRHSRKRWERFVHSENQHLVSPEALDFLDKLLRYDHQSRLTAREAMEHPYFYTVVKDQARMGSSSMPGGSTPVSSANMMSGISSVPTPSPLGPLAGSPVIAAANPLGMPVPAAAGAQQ
T2 sequence (P49840 whole entry): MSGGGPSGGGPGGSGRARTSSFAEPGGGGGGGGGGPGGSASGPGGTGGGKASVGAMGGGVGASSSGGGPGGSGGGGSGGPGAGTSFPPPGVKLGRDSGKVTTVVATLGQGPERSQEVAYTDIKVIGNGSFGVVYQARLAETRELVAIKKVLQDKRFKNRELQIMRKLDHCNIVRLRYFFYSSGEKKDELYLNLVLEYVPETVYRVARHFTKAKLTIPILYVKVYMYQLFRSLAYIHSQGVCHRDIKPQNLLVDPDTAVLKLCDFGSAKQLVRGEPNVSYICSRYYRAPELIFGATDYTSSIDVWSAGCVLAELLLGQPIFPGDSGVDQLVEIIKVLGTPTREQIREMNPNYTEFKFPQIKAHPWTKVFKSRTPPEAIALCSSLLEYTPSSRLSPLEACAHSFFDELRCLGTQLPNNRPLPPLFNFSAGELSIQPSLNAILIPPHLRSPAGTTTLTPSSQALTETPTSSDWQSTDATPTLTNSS
T3 sequence (Q00535 whole entry): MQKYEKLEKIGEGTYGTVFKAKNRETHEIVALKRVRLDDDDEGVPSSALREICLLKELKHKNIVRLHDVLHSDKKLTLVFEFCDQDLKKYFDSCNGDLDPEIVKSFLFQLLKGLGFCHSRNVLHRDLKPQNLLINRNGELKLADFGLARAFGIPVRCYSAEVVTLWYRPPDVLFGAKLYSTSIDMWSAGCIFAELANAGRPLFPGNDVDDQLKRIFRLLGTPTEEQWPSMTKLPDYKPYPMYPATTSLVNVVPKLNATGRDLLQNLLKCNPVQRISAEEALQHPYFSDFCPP
T3 sequence (Q15078 whole entry partner): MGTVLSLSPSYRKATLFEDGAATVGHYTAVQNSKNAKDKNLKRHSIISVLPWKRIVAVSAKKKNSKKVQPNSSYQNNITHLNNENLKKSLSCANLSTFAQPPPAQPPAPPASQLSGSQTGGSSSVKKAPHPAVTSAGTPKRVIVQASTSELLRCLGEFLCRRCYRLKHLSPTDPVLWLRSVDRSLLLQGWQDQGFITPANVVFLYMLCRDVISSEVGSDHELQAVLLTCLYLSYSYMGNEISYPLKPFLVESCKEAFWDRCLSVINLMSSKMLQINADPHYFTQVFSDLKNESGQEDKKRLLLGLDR

For the molecule `CC(C)C(=O)Nc1n[nH]c2cc(-c3cccnc3)sc12` [Compound 16b, N-(5-(pyridin-3-yl)-1H-thieno[3,2-c]pyrazol-3-yl)isobutyramide], in the experiment with SH-SY5Y cells, the “neurite outgrowth of SH-SY5Y cells” value is “substantial ability in inducing SH-SY5Y cells neurite outgrowth”. Further, the “selectivity over CK2” value at CK2 is on record as “moderate selectivity”. Besides, the “selectivity over GSK-3α” value at GSK-3α is listed as “low selectivity”. Also, the “selectivity over CDK5” value at CDK5/p35 is recorded as “low selectivity”.
